Structures can show the parent of a compound that is named as a salt.
assay: in vitro; conditions: rat, gh3-tre-luc cells, AC50 (uM) modified / 1000

SMILES	CC50 at 24 h
CCCCC[C@H](O)/C=C/[C@H]1[C@H](O)CC(=O)[C@@H]1C/C=C\CCCC(=O)O [Dinoprostone]	> 50 µM
COc1cc(C(=O)NS(=O)(=O)c2ccccc2C)ccc1Cc1cn(C)c2ccc(NC(=O)OC3CCCC3)cc12 [Zafirlukast]	28.8 µM
SCCOCCOCCS [2,2'-[Ethane-1,2-diylbis(oxy)]diethanethiol]	> 90 µM
CCOC(=O)[C@H](CCc1ccccc1)N[C@@H](C)C(=O)N1CC2(C[C@H]1C(=O)O)SCCS2 [Spirapril hydrochloride]	> 50 µM
C[C@]12CC[C@@H]3c4ccc(O)cc4CC[C@H]3[C@@H]1CC[C@H]2O [17alpha-Estradiol]	> 90 µM
CCOc1cc(C=O)ccc1O [3-Ethoxy-4-hydroxybenzaldehyde]	> 50 µM
ClC(Cl)(Cl)Cl [Carbon tetrachloride]	> 90 µM
CCCCCCCC(=O)O [Octanoic acid]	> 90 µM
CCCC(=O)O[C@]1(C(=O)CCl)[C@@H](C)C[C@H]2[C@@H]3CCC4=CC(=O)C=C[C@]4(C)[C@@]3(F)C(=O)C[C@@]21C [Clobetasone butyrate]	> 50 µM
CCOC(=O)c1ccccc1C(=C1C=C(Br)C(=O)C(Br)=C1)c1cc(Br)c(O)c(Br)c1 [Tetrabromophenolphthalein ethyl ester]	42.7 µM
C=C(C)C(=O)OCC[N+](C)(C)C [(2-(Methacryloyloxy)ethyl)trimethylammonium chloride]	62.4 µM
O=C(c1ccc(O)cc1O)c1ccc(O)cc1O [2,2',4,4'-Tetrahydroxybenzophenone]	> 90 µM
Nc1nc(N)c2nc(-c3ccccc3)c(N)nc2n1 [Triamterene]	> 90 µM
O=CC(=O)c1ccccc1 [Phenylglyoxal]	> 90 µM
CC[C@H](C)[C@H]1O[C@]2(C=C[C@@H]1C)C[C@@H]1C[C@@H](C/C=C(\C)[C@@H](O[C@H]3C[C@H](OC)[C@@H](O[C@H]4C[C@H](OC)[C@H](NC(C)=O)[C@H](C)O4)[C@H](C)O3)[C@@H](C)/C=C/C=C3\CO[C@@H]4[C@H](O)C(C)=C[C@@H](C(=O)O1)[C@]34O)O2 [Eprinomectin B1a]	7.24 µM
Brc1ccc(Oc2ccc(Br)cc2)cc1 [4,4'-Dibromodiphenyl ether]	> 90 µM
COC(=O)CC(C(C)=O)C(=O)OC (centres unmarked) [Dimethyl acetylsuccinate]	> 90 µM
CN1CCCC(n2nc(Cc3ccc(Cl)cc3)c3ccccc3c2=O)CC1 (centres unmarked) [Azelastine hydrochloride]	12.6 µM
O=C(Nc1ccc2c(c1)Cc1ccccc1-2)C(F)(F)F [N-(2-Fluorenyl)-2,2,2-trifluoroacetamide]	> 90 µM
c1ccc(CC2=NCCN2)cc1 [Tolazoline hydrochloride]	> 20 µM
CC[C@H](C)[C@@H](C(=O)O)n1sc2ccccc2c1=O [(2S,3S)-3-Methyl-2-(3-oxo-1,2-benzothiazol-2(3H)-yl)pentanoic acid]	> 90 µM

SMILES	CC50 at 24 h
N#C[C@@H]1C[C@@H]2C[C@@H]2N1C(=O)[C@@H](N)C12CC3CC(CC(O)(C3)C1)C2 [Saxagliptin]	> 50 µM
COc1ccc(C(=O)c2ccc(OC)cc2O)c(O)c1 [2,2'-Dihydroxy-4,4'-dimethoxybenzophenone]	> 90 µM
Cc1ccc2c(c1)c1c3n2CCNC3CCC1 (centres unmarked) [Pirlindole mesylate]	9.12 µM
CC[C@H](C)[C@H](N)C(=O)O (racemic) [DL-Isoleucine]	> 50 µM
O=C(NC1CCN(CCc2c[nH]c3ccccc23)CC1)c1ccccc1 [Indoramin hydrochloride]	22.2 µM
NCc1ccccc1 [Benzylamine]	> 90 µM
CC1=C(/C=C/C(C)=C/C=C/C(C)=C/C=C/C=C(C)/C=C/C=C(C)/C=C/C2=C(C)CCCC2(C)C)C(C)(C)CCC1 [beta-Carotene]	> 50 µM
CCSC(=O)N(CC(C)C)CC(C)C [Butylate]	> 90 µM
C[C@@H](NCCc1ccc(O)cc1)[C@@H](O)c1ccc(O)cc1 (racemic) [Ritodrine hydrochloride]	> 50 µM
CC(C)(O)C(=O)Nc1ccc([N+](=O)[O-])c(C(F)(F)F)c1 [Hydroxyflutamide]	> 90 µM
CC(C)(C)c1n[nH]c(=S)n(N)c1=O [4-Amino-6-tert-butyl-3-thioxo-3,4-dihydro-1,2,4-triazin-5(2H)-one]	> 90 µM
O=C(O)Cc1ccccc1Nc1c(Cl)cccc1Cl [Diclofenac sodium]	> 90 µM
CCNc1nc(Cl)nc(NCC)n1 [Simazine]	> 90 µM
CCC/C(=N\OCC)C1=C(O)CC(CC(C)SCC)CC1=O (centres unmarked) [Sethoxydim]	> 90 µM
Cc1nc(Nc2ncc(C(=O)Nc3c(C)cccc3Cl)s2)cc(N2CCN(CCO)CC2)n1 [Dasatinib]	15.8 µM
NC(=O)OCC(COC(N)=O)c1ccccc1 [Felbamate]	> 90 µM
Cc1ccc(C(C)C)cc2c(C)ccc1-2 [Guaiazulene]	> 50 µM
O=C(O)/C=C\C(=O)Nc1ccc(S(=O)(=O)Nc2nccs2)cc1 [Maleylsulfathiazole]	> 50 µM
C[C@H]1C[C@H]2[C@@H]3CCC4=CC(=O)C=C[C@]4(C)[C@@]3(F)[C@@H](O)C[C@]2(C)[C@@]1(O)C(=O)CO [Betamethasone]	> 90 µM
CCCCCCCCCCCCO [1-Dodecanol]	> 90 µM
Cc1ccccc1-n1c(C)nc2ccccc2c1=O [Methaqualone]	> 50 µM

SMILES	CC50 at 24 h
COC(=O)[C@@H]1[C@H]2C[C@H]3c4[nH]c5ccccc5c4CCN3C[C@@H]2CC[C@@H]1O [Yohimbine]	> 50 µM
O=C(Cl)c1ccccc1F [2-Fluorobenzoyl chloride]	> 90 µM
CC(C)OC(=O)COc1ccc(Cl)cc1Cl [2,4-D isopropyl ester]	> 90 µM
CC[C@@H](C)[C@@H](N)C(=O)O [D-Isoleucine]	> 50 µM
CCOC(=O)NC(O)C(Cl)(Cl)Cl (centres unmarked) [Carbocloral]	> 50 µM
CC(=O)N[C@@H](CC(C)C)C(=O)O [Acetyl-L-leucine]	> 50 µM
CCC(=O)OCc1ccc(OC)cc1 [Anisyl propionate]	> 90 µM
CC(=O)Nc1ccc(OC(=O)c2ccccc2O)cc1 [Acetaminosalol]	> 50 µM
CC[C@H](CC[C@@H](C)[C@H]1CC[C@H]2[C@@H]3CC=C4C[C@@H](O)CC[C@]4(C)[C@H]3CC[C@]12C)C(C)C [beta-Sitosterol]	> 50 µM
CCC(=O)OCCOc1ccccc1 [Phenoxyethyl propionate]	> 90 µM
CCc1ccc2c(c1)C(=O)c1ccccc1C2=O [2-Ethylanthraquinone]	> 90 µM
OCC1CCCO1 (centres unmarked) [Tetrahydrofurfuryl alcohol]	> 90 µM
OCCOC[C@H]1O[C@H](OCCO)[C@H](OCCO)[C@@H](OCCO)[C@@H]1OCCO [Hydroxyethyl starch]	> 50 µM
CCCCOC(=O)[C@H](C)O [Butyl (2S)-2-hydroxypropanoate]	> 90 µM
c1cnc(N2CCN(Cc3ccc4c(c3)OCO4)CC2)nc1 [Piribedil]	> 50 µM
CC[C@]1(O)C[C@H]2CN(CCc3c([nH]c4ccccc34)[C@@](C(=O)OC)(c3cc4c(cc3OC)N(C=O)[C@H]3[C@@](O)(C(=O)OC)[C@H](OC(C)=O)[C@]5(CC)C=CCN6CC[C@]43[C@@H]65)C2)C1 [Vincristine]	0.12 µM
CC1(C)C2CC[C@]3(C)[C@H](C(=O)C=C4[C@@H]5C[C@@](C)(C(=O)O)CC[C@]5(C)CC[C@]43C)[C@@]2(C)CC[C@@H]1O[C@H]1O[C@H](C(=O)O)[C@@H](O)[C@H](O)[C@H]1O[C@@H]1O[C@H](C(=O)O)[C@@H](O)[C@H](O)[C@H]1O (some centres unmarked) [Glycyrrhizic acid, monosodium salt]	> 50 µM
Cc1ccc2ccccc2n1 [Quinaldine]	> 90 µM
C[C@@H]1CC[C@@]2(OC1)O[C@H]1[C@@H](O)[C@H]3[C@@H]4CC[C@H]5C[C@@H](O[C@@H]6O[C@H](CO)[C@H](O[C@@H]7O[C@H](CO)[C@@H](O)[C@H](O[C@@H]8OC[C@@H](O)[C@H](O)[C@H]8O)[C@H]7O[C@@H]7O[C@H](CO)[C@H](O)[C@H](O[C@@H]8O[C@H](CO)[C@@H](O)[C@H](O)[C@H]8O)[C@H]7O)[C@H](O)[C@H]6O)[C@H](O)C[C@]5(C)[C@H]4CC[C@]3(C)[C@H]1[C@@H]2C [Digitonin]	1.67 µM
FC(F)(F)c1ccccc1-n1ccnc1 [1-[2-(Trifluoromethyl)phenyl]-1H-imidazole]	> 50 µM
Nc1cc2c3c(c1)C(c1ccccc1)=N[C@@H](NC(=O)c1cccnc1)C(=O)N3CC2 [CI-1044]	> 90 µM

same assay, conditions: rat, gh3-tre-luc cells, AC50 (uM) modified / 1000, Tox21_110001=Tox21_112669; viability, 1 nM T3 present, 24 h

SMILES	CC50 at 24 h
CC(C)CCC(=O)O[C@H]1CC[C@H]2[C@@H]3CCC4=CC(=O)CC[C@]4(C)[C@H]3CC[C@]12C [Testosterone isocaproate]	35.3 µM

same assay, conditions: rat, gh3-tre-luc cells, AC50 (uM) modified / 1000, Tox21_110001=Tox21_200267; viability, 1 nM T3 present, 24 h

SMILES	CC50 at 24 h
O=NN1CCCCC1 [N-Nitrosopiperidine]	> 90 µM

same assay, conditions: rat, gh3-tre-luc cells, AC50 (uM) modified / 1000, Tox21_110001=Tox21_201292; viability, 1 nM T3 present, 24 h

SMILES	CC50 at 24 h
Cc1cc(-c2ccc(N)c(C)c2)ccc1N [3,3'-Dimethylbenzidine]	> 90 µM

same assay, conditions: rat, gh3-tre-luc cells, AC50 (uM) modified / 1000, Tox21_110001=Tox21_201753; viability, 1 nM T3 present, 24 h

SMILES	CC50 at 24 h
CCOC(=O)C(O)(c1ccc(Cl)cc1)c1ccc(Cl)cc1 [Chlorobenzilate]	58.2 µM

same assay, conditions: rat, gh3-tre-luc cells, AC50 (uM) modified / 1000, Tox21_110001=Tox21_201977; viability, 1 nM T3 present, 24 h

SMILES	CC50 at 24 h
NNc1ccccc1 [Phenylhydrazine]	71 µM

same assay, conditions: rat, gh3-tre-luc cells, AC50 (uM) modified / 1000, Tox21_110001=Tox21_300594; viability, 1 nM T3 present, 24 h

SMILES	CC50 at 24 h
CCOC(=O)C(O)(c1ccc(Cl)cc1)c1ccc(Cl)cc1 [Chlorobenzilate]	54.6 µM

same assay, conditions: rat, gh3-tre-luc cells, AC50 (uM) modified / 1000, Tox21_110001=Tox21_300743; viability, 1 nM T3 present, 24 h

SMILES	CC50 at 24 h
CC(C)(C)c1cc([N+](=O)[O-])cc([N+](=O)[O-])c1O [Dinoterb]	8.14 µM

same assay, conditions: rat, gh3-tre-luc cells, AC50 (uM) modified / 1000, Tox21_110001=Tox21_303018; viability, 1 nM T3 present, 24 h

SMILES	CC50 at 24 h
NNc1ccccc1 [Phenylhydrazine]	42 µM
